Earlier results in US20250387523A1, “COMBINATION THERAPY OF RADIONUCLIDE COMPLEX” (Novartis AG, priority 2021, published 2025).
Read-outs that look alike come from different tables or passages of the source.

Assays:
recurrent glioblastoma = conditions: randomized 2:1
[1] = test system: newly diagnosed glioblastoma
[2] = test system: newly diagnosed glioblastoma; conditions: newly diagnosed patients; temozolomide added to radiation therapy (radiotherapy alone 12.1 months)

Structure (SMILES) | median OS (recurrent glioblastoma) | median PFS (recurrent glioblastoma) | median survival ([1]; patients with a methylated MGMT promoter, temozolomide and radiotherapy (radiotherapy only 15.3 months, P=0.007)) | median survival ([1]; tumors not methylated at the MGMT promoter, temozolomide plus radiotherapy (radiotherapy only 11.8 months, P=0.06)) | median overall survival [2] | longer median survival with MGMT promoter methylation (glioblastoma; glioblastoma patients treated with temozolomide, MGMT promoter methylation present vs lacking) | clinical benefit (glioblastoma; patients that lack MGMT promoter methylation)
O=NN(CCCl)C(=O)NC1CCCCC1 [lomustine] | 8.6 months | 1.5 months | – | – | – | – | –
Cn1nnc2c(C(N)=O)ncn2c1=O [temozolomide, 3,4-Dihydro-3-methyl-4-oxoimidazo[5,1-d][1,2,3,5]tetrazine-8-carboxamide] | – | – | 21.7 months | 12.7 months | 14.6 months | approximately 50% | no clinical benefit
